Reference: PMC10950204 (Journal of medicinal chemistry, 2024)
Read-outs that look alike come from different tables or passages of the source.

What was measured:
HepG2 = experiment: MTS-based cytotoxicity assay; type: cell-based, human
P. falciparum 3D7 = experiment: SYBR Green I-based proliferation assay, ring stage parasites; details: read-out: Antiplasmodial Activity 3D7 EC50, 72 h
MCF7 = experiment: MTS-based cytotoxicity assay; type: cell-based, human
P. falciparum Dd2 [1] = experiment: SYBR Green I-based proliferation assay, ring stage parasites; details: for fold loss of antiplasmodial potency: relative to compound 1; for further decrease in the potency: on removing the nitrogen from pyridine / thiophenylpyridine
P. falciparum Dd2-B2 = experiment: Minimum inoculum of resistance; type: cell-based; details: 3 × EC10, monitored 50 days
[2] = test system: P. falciparum lines AcAS A597 V, CARL I1139K, PI4K S1320L; experiment: Cross resistance evaluation, SYBR Green I assay; type: cell-based; details: PI4K mutant lines
[3] = test system: P. falciparum strains 3D7, IPC 5188, IPC 5202, IPC 6261; experiment: Ring stage survival assay; details: 10 × EC50 for 6 h, survival at 72 h, all strains
[4] = test system: P. falciparum strains 3D7, IPC 5188, IPC 5202, IPC 6261; experiment: EC50 determination in artemisinin and piperaquine resistant isolates; details: all strains, Figure 4C
[5] = Kinetic solubility, miniaturized shake-flask method; type: physicochemical; details: Table S1, 1× PBS pH 7.4
[6] = In vitro metabolic stability in mouse liver microsomes; type: in vitro ADME
[7] = test system: P. falciparum 3D7 blood-stage parasites; experiment: Parasite reduction ratio; details: 10 × EC50, ring stage
Caco-2 cells = experiment: Caco-2 permeability; type: in vitro ADME; details: Table S1, Caco-2
P. falciparum Dd2 [8] = experiment: SYBR Green I-based proliferation assay, asynchronous blood stage cultures; details: compared to compound 5, Dd2
Synchronized Dd2 culture = experiment: Stage specific assay, YOYO-1 flow cytometry and microscopy; type: cell-based, P. falciparum
[9] = test system: asynchronous Dd2 cultures; experiment: Rate of killing assay, flow cytometry-based; details: 10 × EC50 for as little as 12 h, washed, monitored 4 days
[10] = test system: P. falciparum strains 3D7, IPC 5188, IPC 5202, IPC 6261; experiment: Piperaquine survival assay; details: 10 × EC50 for 48 h, regardless of strain
[11] = test system: panel of 468 kinases (403 nonmutant kinases); experiment: KINOMEscan Profiling Service, binding at 1 μM; design: species or system human; details: screened at 1 μM
human EphA2 = human EphA2 (Homo sapiens, UniProt P29317); experiment: SelectScreen kinase profiling, in vitro FRET-based assay; type: biochemical; details: compared to compound 5
[12] = cited from earlier work
ring stage = details: read-out: ring stage EC50; cited from earlier work

Sequence of human EphA2 (P29317 24-976): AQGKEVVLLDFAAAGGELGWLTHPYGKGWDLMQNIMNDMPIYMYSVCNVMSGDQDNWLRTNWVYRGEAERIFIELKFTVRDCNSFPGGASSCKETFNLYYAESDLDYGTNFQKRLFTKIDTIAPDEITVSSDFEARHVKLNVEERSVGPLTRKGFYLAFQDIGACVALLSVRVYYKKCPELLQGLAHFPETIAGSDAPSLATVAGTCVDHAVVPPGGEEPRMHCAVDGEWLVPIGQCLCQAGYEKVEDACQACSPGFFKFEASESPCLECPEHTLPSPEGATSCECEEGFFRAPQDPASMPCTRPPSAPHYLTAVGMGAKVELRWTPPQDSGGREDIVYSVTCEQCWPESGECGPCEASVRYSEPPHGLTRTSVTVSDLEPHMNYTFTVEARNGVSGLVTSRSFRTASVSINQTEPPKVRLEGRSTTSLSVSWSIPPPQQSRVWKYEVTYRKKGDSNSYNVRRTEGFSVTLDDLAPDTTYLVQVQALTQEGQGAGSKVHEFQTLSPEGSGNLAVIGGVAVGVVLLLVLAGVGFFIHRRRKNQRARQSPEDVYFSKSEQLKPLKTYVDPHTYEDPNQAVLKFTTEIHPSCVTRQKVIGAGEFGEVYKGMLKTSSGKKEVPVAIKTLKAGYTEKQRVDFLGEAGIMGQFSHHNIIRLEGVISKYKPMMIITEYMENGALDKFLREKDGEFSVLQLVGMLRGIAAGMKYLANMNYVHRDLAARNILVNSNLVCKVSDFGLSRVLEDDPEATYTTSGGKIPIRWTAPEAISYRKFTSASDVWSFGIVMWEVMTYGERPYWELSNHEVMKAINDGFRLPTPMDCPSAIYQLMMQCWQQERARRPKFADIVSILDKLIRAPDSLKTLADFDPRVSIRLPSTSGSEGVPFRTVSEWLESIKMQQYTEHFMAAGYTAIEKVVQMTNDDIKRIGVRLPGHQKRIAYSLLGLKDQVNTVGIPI

Question: Which EC50 (HepG2) does the source give for “3-Amino-N-(4-((4-ethylpiperazin-1-yl)methyl)-3-(trifluoromethyl)phenyl)-5-methylbenzamide [Compound 28]” here?
Answer: 3200 ± 238 nM

Question: What about the “Selectivity Index (SI) HepG2” value (HepG2; HepG2 EC50/P. falciparum Dd2 EC50) of the same compound?
Answer: 8.6

Question: What about the EC50 (P. falciparum 3D7) of the same compound?
Answer: 235 ± 34 nM

Question: What about the EC50 (MCF7) of the same compound?
Answer: 5220 ± 517 nM

Question: And the “Selectivity Index (SI) MCF7” value (MCF7; MCF7 EC50/P. falciparum Dd2 EC50)?
Answer: 14

Question: What about the “Resistance Index (RI)” value (P. falciparum Dd2 [1]; P. falciparum Dd2 EC50/P. falciparum 3D7 EC50) of the same compound?
Answer: 1.6

Question: What about the EC50 (P. falciparum Dd2 [1]; read-out: Antiplasmodial Activity Dd2 EC50, ring stage parasites, 72 h) of the same compound?
Answer: 372 ± 37 nM

Question: And the “fold loss of antiplasmodial potency” value (P. falciparum Dd2 [1])?
Answer: 6 fold

Question: Which “parasite recovery under continuous treatment” value (P. falciparum Dd2-B2) does the source give for `CCN1CCN(Cc2ccc(NC(=O)c3cc(Cl)cc(NC(=O)c4cncc(-c5cccs5)c4)c3)cc2C(F)(F)F)CC1` [Compound 1, N-(3-Chloro-5-((4-((4-ethylpiperazin-1-yl)methyl)-3-(trifluoromethyl)phenyl)carbamoyl)phenyl)-5-(thiophen-2-yl)nicotinamide] here?
Answer: failed to recover within 50 days

Question: What about the “cross-resistance, EC50 among resistant lines” value [2] of the same compound?
Answer: no difference

Question: And the ring stage survival [3]?
Answer: notably higher than that of the DHA-treated cultures

Question: And the “EC50 values” [4]?
Answer: low nanomolar range

Question: And the “solubility” value [5]?
Answer: poor

Question: And the “microsomal stability and clearance” value [6]?
Answer: suitable microsomal stability and low clearance

Question: And the “99.9% parasite clearance time (PCT)” value [7]?
Answer: less than 32 h

Question: What about the lag phase [7] of the same compound?
Answer: no lag phase detected

Question: And the “cell permeability” value (Caco-2 cells)?
Answer: poor

Question: And the “fold increase in antiplasmodial activity” value (P. falciparum Dd2 [8])?
Answer: over 48 fold

Question: And the stage specific effect (Synchronized Dd2 culture; 5 × EC50 added at 6 HPI)?
Answer: parasites seemed to remain stunted in the ring stage

Question: What about the stage specific effect (Synchronized Dd2 culture; 5 × EC50 added at 42 HPI) of the same compound?
Answer: the effect was much less pronounced

Question: And the stage specific effect (Synchronized Dd2 culture; 5 × EC50 applied at both 18 and 30 HPI)?
Answer: there was a delayed shift, and parasites were clearly malformed

Question: What about the “parasite recovery after treatment” value [9] of the same compound?
Answer: failed to recover within 4 days

Question: What about the “survival in piperaquine survival assay” value [10] of the same compound?
Answer: did not survive the 48 h treatment

Question: What about the “S (10) selectivity score” value [11] of the same compound?
Answer: 0.035

Question: What about the “fold reduction in human EphA2 activity” value (human EphA2) of the same compound?
Answer: ~900 fold

Question: Which “microsomal stability and clearance” value [6] does the source give for `CCN1CCN(Cc2ccc(NC(=O)c3cc(Cl)cc(NC(=O)c4cccnc4)c3)cc2C(F)(F)F)CC1` [Compound 6, N-(3-Chloro-5-((4-((4-ethylpiperazin-1-yl)methyl)-3-(trifluoromethyl)phenyl)carbamoyl)phenyl)nicotinamide] here?
Answer: metabolized rapidly

Question: What about the “fold loss of antiplasmodial potency” value (P. falciparum Dd2 [1]) of the same compound?
Answer: 3 fold

Question: For `CCN1CCN(Cc2ccc(NC(=O)c3cc(Cl)cc(NC(=O)c4ccccc4)c3)cc2C(F)(F)F)CC1` [Compound 8, 3-Benzamido-5-chloro-N-(4-((4-ethylpiperazin-1-yl)-methyl)-3-(trifluoromethyl)phenyl)benzamide], which “further decrease in the potency” value (P. falciparum Dd2 [1]) is on record?
Answer: 4- to 5 fold

Question: Which “further decrease in the potency” value (P. falciparum Dd2 [1]) does the source give for `CCN1CCN(Cc2ccc(NC(=O)c3cc(Cl)cc(NC(=O)c4cccc(-c5cccs5)c4)c3)cc2C(F)(F)F)CC1` [Compound 9, 3-Chloro-N-(4-((4-ethylpiperazin-1-yl)methyl)-3-(trifluoromethyl)phenyl)-5-(3-(thiophen-2-yl)benzamido)-benzamide] here?
Answer: 4- to 5 fold

Question: For `CCN1CCN(Cc2ccc(NC(=O)c3cc(Cl)cc(NC(=O)c4cncc(-c5ccc(C#N)cc5)c4)c3)cc2C(F)(F)F)CC1` [Compound 16, N-(3-Chloro-5-((4-((4-ethylpiperazin-1-yl)methyl)-3-(trifluoromethyl)phenyl)carbamoyl)phenyl)-5-(4-cyanophenyl)nicotinamide], which ring stage survival [3] is on record?
Answer: notably higher than that of the DHA-treated cultures

Question: What about the “EC50 values” [4] of the same compound?
Answer: low nanomolar range

Question: What about the “99.9% parasite clearance time (PCT)” value [7] of the same compound?
Answer: less than 32 h

Question: And the lag phase [7]?
Answer: no lag phase detected

Question: What about the “survival in piperaquine survival assay” value [10] of the same compound?
Answer: did not survive the 48 h treatment

Question: For `CCN1CCN(Cc2ccc(NC(=O)c3cc(Cl)cc(Nc4cncc(-c5cccs5)c4)c3)cc2C(F)(F)F)CC1` [Compound 17, 3-Chloro-N-(4-((4-ethylpiperazin-1-yl)methyl)-3-(trifluoromethyl)phenyl)-5-((5-(thiophen-2-yl)pyridin-3-yl)-amino)benzamide], which “fold loss of antiplasmodial potency” value (P. falciparum Dd2 [1]) is on record?
Answer: 6 fold

Question: For `CCN1CCN(Cc2ccc(NC(=O)c3cc(Cl)cc(NCc4cncc(-c5cccs5)c4)c3)cc2C(F)(F)F)CC1` [Compound 18, 3-Chloro-N-(4-((4-ethylpiperazin-1-yl)methyl)-3-(trifluoromethyl)phenyl)-5-(((5-(thiophen-2-yl)pyridin-3-yl)-methyl)amino)benzamide], which “fold loss of antiplasmodial potency” value (P. falciparum Dd2 [1]) is on record?
Answer: 6 fold

Question: For `CCN1CCN(Cc2ccc(NC(=O)c3cc(Cl)cc(NC(=O)c4cncc(-c5cccs5)c4)c3)cc2)CC1` [Compound 22, N-(3-Chloro-5-((4-((4-ethylpiperazin-1-yl)methyl)phenyl)-carbamoyl)phenyl)-5-(thiophen-2-yl)nicotinamide], which “microsomal stability and clearance” value [6] is on record?
Answer: suitable microsomal stability and low clearance

Question: For `O=C(Nc1ccnc(N2CCOCC2)c1)c1cc(Cl)cc(NC(=O)c2cncc(-c3cccs3)c2)c1` [Compound 23, N-(3-Chloro-5-((2-morpholinopyridin-4-yl)carbamoyl)-phenyl)-5-(thiophen-2-yl)nicotinamide], which “fold loss of antiplasmodial potency” value (P. falciparum Dd2 [1]) is on record?
Answer: 13 fold

Question: With `CCN1CCN(Cc2ccc(NC(=O)c3cc(NC(=O)c4cncc(-c5cccs5)c4)ccc3F)cc2C(F)(F)F)CC1` [Compound 26, N-(3-((4-((4-Ethylpiperazin-1-yl)methyl)-3-(trifluoromethyl)phenyl)carbamoyl)-4-fluorophenyl)-5-(thiophen-2-yl)nicotinamide] as the compound, how does the EC50 (P. falciparum Dd2 [1]; Plasmodium falciparum, DD2, 72 h, read-out: Antiplasmodial Activity Dd2 EC50 (nM), ring stage parasites, 72 h) read?
Answer: 867 nM

Question: For `CCN1CCN(Cc2ccc(NC(=O)c3cncc(NC(=O)c4cncc(-c5cccs5)c4)c3)cc2C(F)(F)F)CC1` [Compound 30, N-(4-((4-Ethylpiperazin-1-yl)methyl)-3-(trifluoromethyl)-phenyl)-5-(5-(thiophen-2-yl)nicotinamido)nicotinamide], which “microsomal stability and clearance” value [6] is on record?
Answer: metabolized rapidly

Question: And the “improvement in both potency and selectivity” value (P. falciparum Dd2 [1]; compound 30 relative to compound 29)?
Answer: more than 7 fold

Question: For `CCN1CCN(Cc2ccc(NC(=O)c3cc(Br)cc(NC(=O)c4cncc(-c5cccs5)c4)c3)cc2C(F)(F)F)CC1` [Compound 32, N-(3-Bromo-5-((4-((4-ethylpiperazin-1-yl)methyl)-3-(trifluoromethyl)phenyl)carbamoyl)phenyl)-5-(thiophen-2-yl)nicotinamide], which “microsomal stability and clearance” value [6] is on record?
Answer: suitable microsomal stability and low clearance

Question: Which “microsomal stability and clearance” value [6] does the source give for `CCN1CCN(Cc2ccc(NC(=O)c3cc(NC(=O)c4cncc(-c5cccs5)c4)cc(C(F)(F)F)c3)cc2C(F)(F)F)CC1` [Compound 33, N-(3-((4-((4-Ethylpiperazin-1-yl)methyl)-3-(trifluoromethyl)phenyl)carbamoyl)-5-(trifluoromethyl)-phenyl)-5-(thiophen-2-yl)nicotinamide] here?
Answer: suitable microsomal stability and low clearance

Question: For `CC1(C)c2nc(-c3ccc(F)cc3)c(Nc3ccc(Cl)cc3)n2CCN1C(=O)CN` [GNF179], which half-life [12] is on record?
Answer: 8.9 h

Question: With `Cc1cn(-c2cc(NC(=O)c3ccc(C)c(Nc4nccc(-c5cccnc5)n4)c3)cc(C(F)(F)F)c2)cn1` [nilotinib] as the compound, how does the EC50 (ring stage) read?
Answer: < 1000 nM
